Data taken from patent US12448395B2 (BRISTOL-MYERS SQUIBB COMPANY, priority 2019, dated 2025).

These compounds were tested against T1, human TLR9 (Homo sapiens, UniProt Q9NR96) (assay: TLR9 inhibition reporter assay (HEK-Blue SEAP, ODN2006 stimulation)). Conditions: HEK-Blue cells overexpressing human TLR9, ODN2006 5 nM.
T1 sequence (Q9NR96 26-1032): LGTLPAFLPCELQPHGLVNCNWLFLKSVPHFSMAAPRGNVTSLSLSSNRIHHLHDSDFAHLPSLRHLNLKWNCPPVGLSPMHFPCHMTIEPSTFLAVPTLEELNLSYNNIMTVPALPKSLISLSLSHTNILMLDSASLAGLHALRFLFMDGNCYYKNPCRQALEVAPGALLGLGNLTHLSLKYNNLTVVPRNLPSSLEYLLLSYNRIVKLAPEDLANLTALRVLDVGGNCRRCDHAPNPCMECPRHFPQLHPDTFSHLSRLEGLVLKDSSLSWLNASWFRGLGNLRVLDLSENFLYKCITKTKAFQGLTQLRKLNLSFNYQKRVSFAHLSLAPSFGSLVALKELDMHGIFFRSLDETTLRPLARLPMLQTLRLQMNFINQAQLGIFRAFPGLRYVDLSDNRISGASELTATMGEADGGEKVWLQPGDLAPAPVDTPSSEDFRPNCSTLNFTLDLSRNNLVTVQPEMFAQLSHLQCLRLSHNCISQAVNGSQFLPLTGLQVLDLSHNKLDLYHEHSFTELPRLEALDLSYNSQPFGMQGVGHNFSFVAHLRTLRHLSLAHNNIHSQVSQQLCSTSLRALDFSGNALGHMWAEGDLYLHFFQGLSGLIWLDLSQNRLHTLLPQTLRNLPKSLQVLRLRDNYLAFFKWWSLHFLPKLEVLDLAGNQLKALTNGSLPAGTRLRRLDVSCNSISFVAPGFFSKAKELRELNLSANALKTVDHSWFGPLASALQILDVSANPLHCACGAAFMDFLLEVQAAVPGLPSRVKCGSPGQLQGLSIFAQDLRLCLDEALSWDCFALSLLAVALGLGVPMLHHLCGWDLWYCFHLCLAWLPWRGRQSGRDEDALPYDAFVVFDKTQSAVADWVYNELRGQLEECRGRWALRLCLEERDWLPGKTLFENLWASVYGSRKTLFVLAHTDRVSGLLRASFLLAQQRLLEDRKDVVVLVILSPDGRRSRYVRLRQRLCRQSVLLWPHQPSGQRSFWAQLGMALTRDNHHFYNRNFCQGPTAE
Format: cell-based
Description: TLR7/8/9 Inhibition Reporter Assays
HEK-Blue™-cells (Invivogen) overexpressing human TLR7, TLR8 or TLR9 receptors were used for screening inhibitors of these receptors using an inducible SEAP (secreted embryonic alkaline phosphatase) reporter gene under the control of the IFN-β minimal promoter fused to five NF-κB and AP-1-binding sites. Briefly, cells are seeded into Greiner 384 well plates (15000 cells per well for TLR7, 20,000 for TLR8 and 25,000 for TLR9) and then treated with test compounds in DMSO to yield a final dose response concentration range of 0.05 nM-50 μM. After a 30 minute compound pre-treatment at room temperature, the cells are then stimulated with a TLR7 ligand (gardiquimod at a final concentration of 7.5 μM), TLR8 ligand (R848 at a final concentration of 15.9 μM) or TLR9 ligand (ODN2006 at a final concentration of 5 nM) to activate NF-κB and AP-1 which induce the production of SEAP. After a 22 hour incubation at 37° C., 5% CO2, SEAP levels are determined with the addition of HEK-Blue™ Detection reagent (Invivogen), a cell culture medium that allows for detection of SEAP, according to manufacturer's specifications. The percent inhibition is determined as the % reduction in the HEK-Blue signal present in wells treated with agonist plus DMSO alone compared to wells treated with a known inhibitor.

IC50, > 50 µM:
CC(C)c1c(-c2cn(C)c3ncccc23)[nH]c2sc(C3CCN(CC(N)=O)CC3)nc12 [Example 31, 2-(4-(6-isopropyl-5-(1-methyl-1H-pyrrolo[2,3-b]pyridin-3-yl)-4H-pyrrolo[3,2-d]thiazol-2-yl)piperidin-1-yl) acetamide]
CC(C)c1c(-c2cn(C)c3ncccc23)[nH]c2sc(C3CCN(C(=O)CN(C)C)CC3)nc12 [Example 32, 2-(dimethylamino)-1-(4-(6-isopropyl-5-(1-methyl-1H-pyrrolo[2,3-b]pyridin-3-yl)-4H-pyrrolo[3,2-d]thiazol-2-yl)piperidin-1-yl)ethan-1-one]
CC(C)c1c(-c2cn(C)c3ncccc23)[nH]c2sc(C3CCN(CCS(C)(=O)=O)CC3)nc12 [Example 33, 6-isopropyl-5-(1-methyl-1H-pyrrolo[2,3-b]pyridin-3-yl)-2-(1-(2-(methylsulfonyl)ethyl)piperidin-4-yl)-4H-pyrrolo[3,2-d]thiazole]
CC(C)c1c(-c2cn(C)c3ncccc23)[nH]c2sc(C3CCN(C4COC4)CC3)nc12 [Example 34, 6-isopropyl-5-(1-methyl-1H-pyrrolo[2,3-b]pyridin-3-yl)-2-(1-(oxetan-3-yl)piperidin-4-yl)-4H-pyrrolo[3,2-d]thiazole]
Cc1c(-c2[nH]c3sc(C4CCN(C5COC5)CC4)nc3c2C(C)C)cn2ncnc2c1C [Example 43, 5-(7,8-dimethyl-[1,2,4]triazolo[1,5-a]pyridin-6-yl)-6-isopropyl-2-(1-(oxetan-3-yl)piperidin-4-yl)-4H-pyrrolo[3,2-d]thiazole]
Cc1c(-c2[nH]c3sc(C4CCN(CCS(C)(=O)=O)CC4)nc3c2C(C)C)cn2ncnc2c1C [Example 55, 5-(7,8-dimethyl-[1,2,4]triazolo[1,5-a]pyridin-6-yl)-6-isopropyl-2-(1-(2-(methylsulfonyl)ethyl)piperidin-4-yl)-4H-pyrrolo[3,2-d]thiazole]
CC(=O)N1CCC(c2nc3c(C(C)C)c(-c4cn5ncnc5c(C)c4C)[nH]c3s2)CC1 [Example 59, 1-(4-(5-(7,8-dimethyl-[1,2,4]triazolo[1,5-a]pyridin-6-yl)-6-isopropyl-4H-pyrrolo[3,2-d]thiazol-2-yl)piperidin-1-yl)ethan-1-one]
Cc1c(-c2[nH]c3sc(C4CCN(C5COC5)CC4)nc3c2C(C)C)cn(C)c(=O)c1C [Example 60, 5-(6-isopropyl-2-(1-(oxetan-3-yl)piperidin-4-yl)-4H-pyrrolo[3,2-d]thiazol-5-yl)-1,3,4-trimethylpyridin-2 (1H)-one]
Cc1c(-c2[nH]c3sc(C4CCN(CCS(C)(=O)=O)CC4)nc3c2C(C)C)cn(C)c(=O)c1C [Example 61, 5-(6-isopropyl-2-(1-(2-(methylsulfonyl)ethyl)piperidin-4-yl)-4H-pyrrolo[3,2-d]thiazol-5-yl)-1,3,4-trimethylpyridin-2 (1H)-one]
Cc1c(-c2[nH]c3sc(C4CCN(CC(=O)N(C)C)CC4)nc3c2C(C)C)cn(C)c(=O)c1C [Example 62, 2-(4-(6-isopropyl-5-(1,4,5-trimethyl-6-oxo-1,6-dihydropyridin-3-yl)-4H-pyrrolo[3,2-d]thiazol-2-yl)piperidin-1-yl)-N,N-dimethylacetamide]
CNC(=O)CN1CCC(c2nc3c(C(C)C)c(-c4cn(C)c(=O)c(C)c4C)[nH]c3s2)CC1 [Example 63, 2-(4-(6-isopropyl-5-(1,4,5-trimethyl-6-oxo-1,6-dihydropyridin-3-yl)-4H-pyrrolo[3,2-d]thiazol-2-yl)piperidin-1-yl)-N-methylacetamide]
Cc1c(-c2[nH]c3sc(C4CCN(CC(N)=O)CC4)nc3c2C(C)C)cn(C)c(=O)c1C [Example 64, 2-(4-(6-isopropyl-5-(1,4,5-trimethyl-6-oxo-1,6-dihydropyridin-3-yl)-4H-pyrrolo[3,2-d]thiazol-2-yl)piperidin-1-yl)acetamide]
Cc1c(-c2[nH]c3sc(N4CCN(CCS(C)(=O)=O)CC4)nc3c2C(C)C)cn2ncnc2c1C [Example 282, 5-(7,8-dimethyl-[1,2,4]triazolo[1,5-a]pyridin-6-yl)-6-isopropyl-2-(4-(2-(methylsulfonyl)ethyl)piperazin-1-yl)-4H-pyrrolo[3,2-d]thiazole]
Cc1c(-c2[nH]c3sc(N4CCN(CC(=O)N(C)C)CC4)nc3c2C(C)C)cn2ncnc2c1C [Example 283, 2-(4-(5-(7,8-dimethyl-[1,2,4]triazolo[1,5-a]pyridin-6-yl)-6-isopropyl-4H-pyrrolo[3,2-d]thiazol-2-yl)piperazin-1-yl)-N,N-dimethylacetamide]
CNC(=O)CN1CCN(c2nc3c(C(C)C)c(-c4cn5ncnc5c(C)c4C)[nH]c3s2)CC1 [Example 284, 2-(4-(5-(7,8-dimethyl-[1,2,4]triazolo[1,5-a]pyridin-6-yl)-6-isopropyl-4H-pyrrolo[3,2-d]thiazol-2-yl)piperazin-1-yl)-N-methylacetamide]
Cc1c(-c2[nH]c3sc(N4CCN(CC(N)=O)CC4)nc3c2C(C)C)cn2ncnc2c1C [Example 285, 2-(4-(5-(7,8-dimethyl-[1,2,4]triazolo[1,5-a]pyridin-6-yl)-6-isopropyl-4H-pyrrolo[3,2-d]thiazol-2-yl)piperazin-1-yl)acetamide]
Cc1c(-c2[nH]c3sc(N4CCN(C5COC5)CC4)nc3c2C(C)C)cn2ncnc2c1C [Example 286, 5-(7,8-dimethyl-[1,2,4]triazolo[1,5-a]pyridin-6-yl)-6-isopropyl-2-(4-(oxetan-3-yl)piperazin-1-yl)-4H-pyrrolo[3,2-d]thiazole]
Cc1c(-c2[nH]c3sc(N4CC5(C4)CN(C4COC4)C5)nc3c2C(C)C)cn2ncnc2c1C [Example 302, 5-(7,8-dimethyl-[1,2,4]triazolo[1,5-a]pyridin-6-yl)-6-isopropyl-2-(6-(oxetan-3-yl)-2,6-diazaspiro[3.3]heptan-2-yl)-4H-pyrrolo[3,2-d]thiazole]
Cc1c(-c2[nH]c3sc(N4CC5(CN(CCS(C)(=O)=O)C5)C4)nc3c2C(C)C)cn(C)c(=O)c1C [Example 305, 5-(6-isopropyl-2-(6-(2-(methylsulfonyl)ethyl)-2,6-diazaspiro[3.3]heptan-2-yl)-4H-pyrrolo[3,2-d]thiazol-5-yl)-1,3,4-trimethylpyridin-2 (1H)-one]
Cc1c(-c2[nH]c3sc(N4CC5(C4)CN(C4COC4)C5)nc3c2C(C)C)cn(C)c(=O)c1C [Example 306, 5-(6-isopropyl-2-(6-(oxetan-3-yl)-2,6-diazaspiro[3.3]heptan-2-yl)-4H-pyrrolo[3,2-d]thiazol-5-yl)-1,3,4-trimethylpyridin-2 (1H)-one]
Cc1c(-c2[nH]c3sc(N4CC5(CN(CC6CCOCC6)C5)C4)nc3c2C(C)C)cn(C)c(=O)c1C [Example 307, 5-(6-isopropyl-2-(6-((tetrahydro-2H-pyran-4-yl)methyl)-2,6-diazaspiro[3.3]heptan-2-yl)-4H-pyrrolo[3,2-d]thiazol-5-yl)-1,3,4-trimethylpyridin-2 (1H)-one]
Cc1c(-c2[nH]c3sc(N4CCN(CC(=O)N(C)C)C[C@H]4C)nc3c2C(C)C)cn2ncnc2c1C [Example 312, (R)-2-(4-(5-(7,8-dimethyl-[1,2,4]triazolo[1,5-a]pyridin-6-yl)-6-isopropyl-4H-pyrrolo[3,2-d]thiazol-2-yl)-3-methylpiperazin-1-yl)-N,N-dimethylacetamide]
